Measurements taken from US6982271B1, “Tropane analogs” (Georgetown University, priority 1999, dated 2006).

Experiments:
Format in all cases: cell-based
[1] = target: norepinephrine transporter (NET) (Homo sapiens, UniProt P23975); test: [3H]NE uptake inhibition at the norepinephrine transporter; conditions: for NE/5-HT ratio / NE/DA ratio: ratio of uptake Ki; for NE/5-HT ratio: NE vs 5-HT; for NE/DA ratio: NE vs DA; for Ki: read-out: [3H]NE uptake, Ki ± SE
Description: (§1) These novel ligands have been tested for their binding affinity at the DAT as well as for the inhibition of reuptake of NE, 5-HT, and DA at their specific transporters.

[2] = target: serotonin transporter (5-HTT) (Homo sapiens, UniProt P31645); test: [3H]5-HT uptake inhibition at the serotonin transporter; conditions: for 5-HT/DA ratio: ratio of uptake Ki, 5-HT vs DA; for Ki: read-out: [3H]5-HT uptake, Ki ± SE; for higher activity at 5-HTT vs. DAT: selectivity 5-HTT vs DAT
serotonin transporter (5-HTT), sequence (P31645 whole entry, species assumed): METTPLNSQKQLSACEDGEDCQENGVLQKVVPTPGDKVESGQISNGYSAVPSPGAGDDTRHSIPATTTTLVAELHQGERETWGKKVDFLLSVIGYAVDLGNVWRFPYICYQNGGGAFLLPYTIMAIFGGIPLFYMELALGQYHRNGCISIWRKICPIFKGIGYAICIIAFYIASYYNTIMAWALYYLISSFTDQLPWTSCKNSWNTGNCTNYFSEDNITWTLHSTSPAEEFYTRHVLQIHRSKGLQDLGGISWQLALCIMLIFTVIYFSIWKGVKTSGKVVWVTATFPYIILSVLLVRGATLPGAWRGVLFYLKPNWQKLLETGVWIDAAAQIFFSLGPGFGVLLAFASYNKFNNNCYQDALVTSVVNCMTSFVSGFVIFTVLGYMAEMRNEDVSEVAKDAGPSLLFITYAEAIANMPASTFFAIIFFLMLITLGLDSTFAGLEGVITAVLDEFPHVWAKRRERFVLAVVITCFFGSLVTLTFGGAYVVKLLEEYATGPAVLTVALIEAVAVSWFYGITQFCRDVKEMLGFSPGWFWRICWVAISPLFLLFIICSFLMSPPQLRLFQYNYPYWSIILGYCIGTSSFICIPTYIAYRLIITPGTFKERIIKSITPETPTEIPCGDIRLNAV
Description: as §1

[3] = target: dopamine transporter (DAT) (Homo sapiens, UniProt Q01959); test: [3H]DA uptake inhibition at the dopamine transporter; conditions: read-out: [3H]DA uptake, Ki ± SE
dopamine transporter (DAT), sequence (Q01959 whole entry, species assumed): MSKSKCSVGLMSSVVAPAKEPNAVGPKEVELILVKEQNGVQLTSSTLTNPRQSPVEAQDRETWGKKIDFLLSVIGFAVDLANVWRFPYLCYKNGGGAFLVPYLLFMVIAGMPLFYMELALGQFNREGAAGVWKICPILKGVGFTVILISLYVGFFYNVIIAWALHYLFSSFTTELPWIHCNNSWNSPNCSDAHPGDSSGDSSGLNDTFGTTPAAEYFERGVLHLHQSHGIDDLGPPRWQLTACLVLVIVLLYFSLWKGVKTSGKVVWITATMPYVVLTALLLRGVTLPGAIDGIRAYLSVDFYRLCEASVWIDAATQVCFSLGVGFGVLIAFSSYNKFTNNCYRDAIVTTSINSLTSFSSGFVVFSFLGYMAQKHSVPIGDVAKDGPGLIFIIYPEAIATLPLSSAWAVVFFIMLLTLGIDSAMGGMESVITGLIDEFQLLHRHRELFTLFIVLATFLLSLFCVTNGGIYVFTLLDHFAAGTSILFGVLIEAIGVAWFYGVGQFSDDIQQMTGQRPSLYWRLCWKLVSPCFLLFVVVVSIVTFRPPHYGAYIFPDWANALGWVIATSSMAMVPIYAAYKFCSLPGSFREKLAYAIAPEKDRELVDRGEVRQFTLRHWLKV
Description: as §1

norepinephrine transporter (NET), sequence (P23975 whole entry, species assumed): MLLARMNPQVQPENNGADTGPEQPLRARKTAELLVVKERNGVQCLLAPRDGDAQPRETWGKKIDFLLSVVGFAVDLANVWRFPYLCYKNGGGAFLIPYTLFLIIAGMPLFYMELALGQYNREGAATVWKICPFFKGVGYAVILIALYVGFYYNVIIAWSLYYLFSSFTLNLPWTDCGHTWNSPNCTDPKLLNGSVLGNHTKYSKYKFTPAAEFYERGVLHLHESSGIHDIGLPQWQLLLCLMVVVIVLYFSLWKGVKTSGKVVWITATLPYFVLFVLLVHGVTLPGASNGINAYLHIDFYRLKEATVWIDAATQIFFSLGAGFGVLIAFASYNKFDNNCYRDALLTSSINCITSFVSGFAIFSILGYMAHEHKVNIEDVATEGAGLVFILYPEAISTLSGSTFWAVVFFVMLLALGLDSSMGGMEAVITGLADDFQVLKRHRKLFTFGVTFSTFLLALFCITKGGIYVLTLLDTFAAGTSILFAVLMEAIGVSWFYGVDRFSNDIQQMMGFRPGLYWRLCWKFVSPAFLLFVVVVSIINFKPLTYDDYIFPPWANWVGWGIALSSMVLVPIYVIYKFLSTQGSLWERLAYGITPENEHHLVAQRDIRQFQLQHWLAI

## COC(=O)C1C2CC3CCC1N3CC2=Cc1ccccc1 (single isomer, unassigned) [5a]
[1]
  NE/5-HT ratio: 0.05
  NE/DA ratio: 0.11
  Ki: 53 ± 16.1 nM
[1]; selectivity NET vs 5-HTT
  Ki at the 5-HTT higher than at the NET: 20 fold
[1]; selectivity NET vs DAT
  Ki at the DAT higher than at the NET: 9 fold
[2]
  5-HT/DA ratio: 2.36
  Ki: 1140 ± 70 nM
[3]
  Ki: 481 ± 10.8 nM

## COC(=O)C1C2CC3CCC1N3CC2=Cc1ccccc1 (single isomer, unassigned) [compound 6]
[1]; NET, 5-HTT and DAT
  activity at all three transporters: only weakly active
[1]
  NE/5-HT ratio: 0.2
  NE/DA ratio: 0.3
  Ki: 1530 ± 150 nM
[2]
  5-HT/DA ratio: 1.48
  Ki: 7480 ± 250 nM
[3]
  Ki: 5070 ± 310 nM

## COC(=O)C1C2CC3CCC1N3CC2=Cc1ccc(Cl)c(Cl)c1 (stereo not shown) [5b]
[1]
  NE/5-HT ratio: 50.6
  NE/DA ratio: 0.52
  Ki: 1000 ± 280 nM
[2]
  5-HT/DA ratio: 0.01
  Ki: 19.8 ± 0.5 nM
  higher activity at 5-HTT vs. DAT: about 100 fold
[2]; selectivity 5-HTT vs NET
  higher activity at 5-HTT vs. the NET: about 50 fold
[3]
  Ki: 1920 ± 260 nM

## COC(=O)C1C2CC3CCC1N3CC2=Cc1ccc(OC)cc1 (stereo not shown) [5c]
[1]
  NE/5-HT ratio: 3.37
  NE/DA ratio: 0.06
  Ki: 187 ± 4.6 nM
[2]
  5-HT/DA ratio: 0.02
  Ki: 55.7 ± 3.8 nM
  higher activity at 5-HTT vs. DAT: 50 fold
[3]
  Ki: 3130 ± 160 nM

## COC(=O)C1C2CC3CCC1N3CC2=Cc1ccc(F)cc1 (stereo not shown) [5d]
[1]; fluoro substituent, 5d vs. 5a
  decrease of norepinephrine reuptake activity vs. 5a: about 10 factor
[1]
  NE/5-HT ratio: 1.74
  NE/DA ratio: 0.09
  Ki: 584 ± 163 nM
[2]
  5-HT/DA ratio: 0.05
  Ki: 335 ± 45.5 nM
[3]
  Ki: 6620 ± 460 nM

## COC(=O)C1C2CC3CCC1N3CC2=Cc1cccc2ccccc12 (stereo not shown) [5e]
[1]
  NE/5-HT ratio: 44.5
  NE/DA ratio: 0.55
  Ki: 5370 ± 580 nM
[2]
  5-HT/DA ratio: 0.01
  Ki: 121 ± 3.4 nM
[3]
  Ki: 9720 ± 700 nM

## COC(=O)C1C2CC3CCC1N3CC2=Cc1ccco1 (stereo not shown) [5f]
[1]
  NE/5-HT ratio: 0.03
  NE/DA ratio: 0.05
  Ki: 111 ± 12.7 nM
[2]
  5-HT/DA ratio: 1.82
  Ki: 3680 ± 190 nM
[3]
  Ki: 2020 ± 190 nM

## COC(=O)C1C2CC3CCC1N3CC2=Cc1ccoc1 (stereo not shown) [5g]
[1]
  NE/5-HT ratio: 0.33
  NE/DA ratio: 0.09
  Ki: 164 ± 2.8 nM
[2]
  5-HT/DA ratio: 0.26
  Ki: 498 ± 65.5 nM
[3]
  Ki: 1880 ± 10 nM
